# Numbers after ± are expanded uncertainties.
# How the values were obtained:
# [1] = refractive index (Na D-line) (dimensionless); settings: 293.15 K; 101.33 kPa; Liquid; Standard Abbe refractometry
# [2] = Liquid; for mass density: 293.15 K, 101.33 kPa, Vibrating tube method
SMILES,refractive index [1],mass density [2] [kg/m3],"vapor or sublimation pressure ([2]; 369.09 K, Closed cell (Static) method) [kPa]","vapor or sublimation pressure ([2]; 447.7 K, Ebulliometric method (Recirculating still)) [kPa]","vapor or sublimation pressure ([2]; 447.74 K, Ebulliometric method (Recirculating still)) [kPa]","vapor or sublimation pressure ([2]; 350.21 K, Closed cell (Static) method) [kPa]","vapor or sublimation pressure ([2]; 354.3 K, Ebulliometric method (Recirculating still)) [kPa]","vapor or sublimation pressure ([2]; 336.48 K, Closed cell (Static) method) [kPa]"
CCCO [propan-1-ol],1.3851 ± 0.0007,803.4 ± 0.3,96.5 ± 4.8,,,,,
CCCCCCCO [heptan-1-ol],1.4227 ± 0.001,821.8 ± 0.3,,96.5 ± 4.8,96.5 ± 4.8,,,
CCO [ethanol],1.3609 ± 0.0007,788.9 ± 0.3,,,,96.5 ± 4.8,,
CC(C)(C)O [2-methylpropan-2-ol],1.3878 ± 0.0008,788.5 ± 0.3,,,,,96.5 ± 4.8,
CO [methanol],1.3285 ± 0.0007,791.2 ± 0.3,,,,,,96.5 ± 4.8

# Source: the NIST ThermoML archive (doi:10.1021/je300696c)
